Test results from patent US8030499B2, “1,3-dihydro-2H-indole-2-one compound and pyrrolidine-2-one compound fused with aromatic heterocycle” (Taisho Pharmaceutical Co., Ltd., priority 2005, dated 2011).
Structures can show the parent of a compound that is named as a salt.

The compounds below were run against T1, human V1b receptor (Homo sapiens, UniProt P47901) (assay: V1b receptor binding assay ([3H](Arg8)-vasopressin, crude membranes of CHO cells)). Conditions: 0.1 μmol/L test drug, V1b receptor binding assay; read-out: Rate of inhibition (V1b: % of inhibition).
T1 construct: expressed in transfected cells; host or cells: CHO cells
T1 sequence (P47901 1-424): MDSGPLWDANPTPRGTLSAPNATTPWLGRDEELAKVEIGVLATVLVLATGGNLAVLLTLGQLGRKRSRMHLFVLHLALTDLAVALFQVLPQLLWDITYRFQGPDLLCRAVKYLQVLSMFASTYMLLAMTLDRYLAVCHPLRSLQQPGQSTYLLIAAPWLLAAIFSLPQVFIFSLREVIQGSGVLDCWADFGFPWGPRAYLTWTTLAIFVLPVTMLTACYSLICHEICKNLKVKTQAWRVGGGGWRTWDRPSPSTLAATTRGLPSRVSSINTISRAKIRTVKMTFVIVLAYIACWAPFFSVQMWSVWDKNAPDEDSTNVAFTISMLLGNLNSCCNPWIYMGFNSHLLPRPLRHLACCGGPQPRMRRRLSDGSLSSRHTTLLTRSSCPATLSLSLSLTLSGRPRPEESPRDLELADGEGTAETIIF
Description: A summary of the methods is given below.
Each obtained homogenate was centrifuged for 20 minutes at 50,000×g and 4° C., the sediment was resuspended in a 50 mmol/L Tris hydrochloric acid buffer solution (pH7.4, containing 10 mmol/L magnesium chloride and 0.1% bovine serum albumin), which served as a crude membrane preparation. This crude membrane preparation was added with [^3H] (Arg^8) vasopressin (final concentration: 0.1 nmol/L to 0.4 nmol/L), and each test drug (final concentration: 0.1 nmol/L to lμmol/L or 0.01 nmol/L to 0.1 μmol/L) to 22° C. for 90 minutes. After the end of the reaction, the reaction solution was filtrated using a GF/C glass fiber filter, which had been presoaked in 0.3% polyethyleneimine for two hours. After the GF/C glass fiber filter was dried sufficiently, scintillator was added, and the radioactivity on the filter was measured using a liquid scintillation counter. Binding of [^3H] (Arg^8)-vasopressin in the presence of (Arg^8)-vasopressin, in the amounts of 0.1 μmol/L in the V1b receptor binding assay and 5 μmol/L in the V1a and V2 receptor binding assay, were taken as non-specific binding, and the value obtained by subtracting non-specific binding from the total binding in the absence (Arg^8)-vasopressin served as specific binding.
In addition, regarding the V1b receptor binding assay, the value obtained by, subtracting the amount of binding in the presence of 0.1 μmol/L test drug from the total amount of binding, divided by the amount of specific binding, served as the rate of inhibition (% of inhibition) of the test drug at the concentration tested.

Row | inhibition at 0.1 µM | SMILES
1 | 102% | COC(=O)[C@@H]1C[C@@H](O)CN1C1(c2ccccc2OC)C(=O)N(S(=O)(=O)c2ccc(OC)cc2OC(F)(F)F)c2ccc(Cl)cc21 (single isomer, unassigned) [Example 4]
2 | 96% | COc1ccc(S(=O)(=O)N2C(=O)C(c3ccccc3OC)(N3C[C@H](F)C[C@H]3C(=O)N(C)C)c3cc(Cl)ccc32)c(OC(F)(F)F)c1 (single isomer, unassigned) [Example 7]
3 | 72% | COc1ccc(S(=O)(=O)N2C(=O)C(N[C@@H](Cc3ccncc3)C(=O)N(C)C)(c3ccccc3OC)c3cc(Cl)ccc32)c(OC(F)(F)F)c1 (single isomer, unassigned) [Example 83]
4 | 86% | COc1ccc(S(=O)(=O)N2C(=O)C(N[C@@H](Cc3ccc(O)cc3)C(=O)N(C)C)(c3ccccc3OC)c3cc(Cl)ccc32)c(OC(F)(F)F)c1 (single isomer, unassigned) [Example 86]
5 | 104% | COc1ccc(S(=O)(=O)N2C(=O)C(c3cccc4c3OCC4)(N3C[C@H](O)C[C@H]3C(=O)N(C)C)c3cc(Cl)ccc32)c(OC(F)(F)F)c1 (single isomer, unassigned) [Example 89]
6 | 102% | COc1ccc(S(=O)(=O)N2C(=O)C(c3cccc4c3OCO4)(N3C[C@H](O)C[C@H]3C(=O)N(C)C)c3cc(Br)ccc32)c(OC(F)(F)F)c1 (single isomer, unassigned) [Example 92]
7 | 73% | COc1ccc(C2(N3CCCC[C@H]3C(=O)N(C)C)C(=O)N(S(=O)(=O)c3ccc(OC)cc3OC(F)(F)F)c3ccc(C)cc32)cc1 (single isomer, unassigned) [Example 96]
8 | 102% | COc1ccc(S(=O)(=O)N2C(=O)C(c3cc(OC)ccc3OC)(N3C[C@H](O)C[C@H]3C(=O)N(C)C)c3cc(Cl)ccc32)c(OC(F)(F)F)c1 (single isomer, unassigned) [Example 102]
9 | 94% | C=Cc1ccccc1C1(N2C[C@H](O)C[C@H]2C(=O)N(C)C)C(=O)N(S(=O)(=O)c2ccc(OC)cc2OC(F)(F)F)c2ccc(Cl)cc21 (single isomer, unassigned) [Example 104]
10 | 95% | COc1ccc(S(=O)(=O)N2C(=O)C(c3ccccc3C)(N3C[C@H](O)C[C@H]3C(=O)N(C)C)c3cc(Br)ccc32)c(OC(F)(F)F)c1 (single isomer, unassigned) [Example 105]
11 | 102% | COc1ccc(S(=O)(=O)N2C(=O)C(c3cccc4c3OCO4)(N3C[C@H](O)C[C@H]3C(=O)N(C)C)c3cc(C)ccc32)c(OC(F)(F)F)c1 (single isomer, unassigned) [Example 107]
12 | 95% | COc1ccc(S(=O)(=O)N2C(=O)C(c3cc(OC)ccc3OC)(N3CCCC[C@H]3C(=O)N(C)C)c3cc(Cl)ccc32)c(OC(F)(F)F)c1 (single isomer, unassigned) [Example 117]
13 | 67% | COc1ccc(S(=O)(=O)N2C(=O)C(c3cc(C)ccc3OC)(N3C[C@H](O)C[C@H]3C(=O)N(C)C)c3cc(Cl)cnc32)c(OC(F)(F)F)c1 (single isomer, unassigned) [Example 118]
14 | 47% | COc1ccc(S(=O)(=O)N2C(=O)C(c3cc(C)ccc3OC)(N3C[C@H](O)C[C@H]3C(=O)N(C)C)c3cc(Br)cnc32)c(OC)c1 (single isomer, unassigned) [Example 121]
15 | 92% | COC(=O)[C@@H]1C[C@@H](O)CN1C1(c2cc(C)ccc2OC)C(=O)N(S(=O)(=O)c2ccc(OC)cc2OC(F)(F)F)c2ccc(Cl)cc21 (single isomer, unassigned) [Example 135]
16 | 96% | COc1ccc(S(=O)(=O)N2C(=O)C(c3cc(C)ccc3OC)(N3C[C@H](OC(C)=O)C[C@H]3C(=O)N(C)C)c3cc(Cl)ccc32)c(OC(F)(F)F)c1 (single isomer, unassigned) [Example 137]

Row | inhibition at 0.1 µM | SMILES
17 | 94% | COc1ccc(S(=O)(=O)N2C(=O)C(c3cc(C)ccc3OC)(N3C[C@H](OCC#N)C[C@H]3C(=O)N(C)C)c3cc(Cl)ccc32)c(OC(F)(F)F)c1 (single isomer, unassigned) [Example 146]
18 | 93% | COc1ccc(S(=O)(=O)N2C(=O)C(c3cc(C)cnc3OC)(N3C[C@H](O)C[C@H]3C(=O)N(C)C)c3cc(Cl)ccc32)c(OCC(F)(F)F)c1 (single isomer, unassigned) [Example 169]
19 | 95% | COc1ccc(S(=O)(=O)N2C(=O)C(c3cc(C)ccc3OC)(N3C[C@H](O)C[C@H]3C(=O)N(C)C)c3cc(Cl)ccc32)c(OCC(F)(F)F)c1 (single isomer, unassigned) [Example 171]
20 | 97% | COc1ccc(C)cc1C1(N2C[C@H](O)C[C@H]2C(=O)N(C)C)C(=O)N(S(=O)(=O)c2ccc(OC)c(OC)c2OC)c2ccc(Cl)cc21 (single isomer, unassigned) [Example 176]
21 | 93% | COc1ccc(S(=O)(=O)N2C(=O)C(c3cc(N(C)C)ccc3OC)(N3C[C@H](O)C[C@H]3C(=O)N(C)C)c3cc(Cl)ccc32)c(OC(F)(F)F)c1 (single isomer, unassigned) [Example 190]
22 | 98% | COc1ccc(S(=O)(=O)N2C(=O)C(c3cc(CN4CCCC4)ccc3OC)(N3C[C@H](O)C[C@H]3C(=O)N(C)C)c3cc(Cl)ccc32)c(OC(F)(F)F)c1 (single isomer, unassigned) [Example 199]
23 | 53% | COc1ccc(S(=O)(=O)N2C(=O)C(c3cc(CN4CCN(C(=O)OC(C)(C)C)CC4)ccc3OC)(N3C[C@H](O)C[C@H]3C(=O)N(C)C)c3cc(Cl)ccc32)c(OC(F)(F)F)c1 (single isomer, unassigned) [Example 201]
24 | 87% | COc1ccc(S(=O)(=O)N2C(=O)C(c3cc(CO)ccc3OC)(N3C[C@H](O)C[C@H]3C(=O)N(C)C)c3cc(Cl)ccc32)c(OC(F)(F)F)c1 (single isomer, unassigned) [Example 203]
25 | 101% | COc1ccc(S(=O)(=O)N2C(=O)C(c3cc(C(C)C)ccc3OC)(N3C[C@H](O)C[C@H]3C(=O)N(C)C)c3cc(Cl)ccc32)c(OC(F)(F)F)c1 (single isomer, unassigned) [Example 230]
26 | 93% | COc1ccc(S(=O)(=O)N2C(=O)C(c3cc(CC#N)ccc3OC)(N3C[C@H](O)C[C@H]3C(=O)N(C)C)c3cc(Cl)ccc32)c(OC(F)(F)F)c1 (single isomer, unassigned) [Example 236]
27 | 89% | COc1ccc(S(=O)(=O)N2C(=O)C(c3cc(C#N)ccc3OC)(N3C[C@H](O)C[C@H]3C(=O)N(C)C)c3cc(Cl)ccc32)c(OC(F)(F)F)c1 (single isomer, unassigned) [Example 238]
28 | 85% | COc1ccc(S(=O)(=O)N2C(=O)C(c3cccc(OC)c3OC)(N3C[C@H](O)C[C@H]3C(=O)N(C)C)c3cc(Cl)ccc32)c(OC(F)(F)F)c1 (single isomer, unassigned) [Example 240]
29 | 66% | COc1ccc(S(=O)(=O)N2C(=O)C(c3ccccc3OC)(N3c4ccccc4C[C@H]3C(=O)N(C)C)c3cc(Cl)ccc32)c(OC(F)(F)F)c1 (stereo partly drawn) [Example 40, (2S)-5′-chloro-3′-(2-methoxyphenyl)-1′-{[4-methoxy-2-(trifluoromethoxy)phenyl]sulfonyl}-N,N-dimethyl-2′-oxo-2,2′,3,3′-tetrahydro-1′H-1,3′-biindole-2-carboxamide]
30 | 92% | COc1ccc(S(=O)(=O)N2C(=O)C(CC(=O)N3CCN(c4ccncc4)CC3)(c3ccccc3OC)c3cc(Cl)ccc32)c(OC(F)(F)F)c1 (centres unmarked) [Example 43, 5-chloro-3-(2-methoxyphenyl)-1-{[4-methoxy-2-(trifluoromethoxy)phenyl]sulfonyl}-3-[2-oxo-2-(4-pyridin-4-ylpiperazin-1-yl)ethyl]-1,3-dihydro-2H-indol-2-one hydrochloride 1.5 hydrate]
31 | 77% | COc1ccc(S(=O)(=O)N2C(=O)C(NCC(=O)N3CCN(c4ccncc4)CC3)(c3ccccc3OC)c3cc(Cl)ccc32)c(OC(F)(F)F)c1 (centres unmarked) [Example 58, 5-chloro-3-(2-methoxyphenyl)-1-{[4-methoxy-2-(trifluoromethoxy)phenyl]sulfonyl}-3-{[2-oxo-2-(4-pyridin-4-ylpiperazin-1-yl)ethyl]amino}-1,3-dihydro-2H-indol-2-one]
32 | 69% | COC(=O)[C@H](C)OC1(c2ccccc2OC)C(=O)N(S(=O)(=O)c2ccc(OC)cc2OC(F)(F)F)c2ccc(Cl)cc21 (stereo partly drawn) [Example 80, Methyl (2S)-2-[(5-chloro-3-(2-methoxyphenyl)-1-{[4-methoxy-2-(trifluoromethoxy)phenyl]sulfonyl}-2-oxo-2,3-dihydro-1H-indol-3-yl)oxy]propanoate]
